Test results from patent publication US11673883B2, “Heterocyclic compounds as immunomodulators” (Incyte Corporation, priority 2016, dated 2023).

molecular target: PD-1/PD-L1 protein/protein interaction (Homo sapiens (Human), UniProt Q9NZQ7); assay: PD-1/PD-L1 Homogeneous Time-Resolved Fluorescence (HTRF) Binding Assay; conditions: recombinant human PD-L1 (19-238) His-tag, human PD-1 (25-167) Fc tag; 25° C., PBS pH 7.4
Method: Example A. PD-1/PD-L1 Homogeneous Time-Resolved Fluorescence (HTRF) Binding Assay
The assays were conducted in a standard black 384-well polystyrene plate with a final volume of 20 μL. Inhibitors were first serially diluted in DMSO and then added to the plate wells before the addition of other reaction components. The final concentration of DMSO in the assay was 1%. The assays were carried out at 25° C. in the PBS buffer (pH 7.4) with 0.05% Tween-20 and 0.1% BSA. Recombinant human PD-L1 protein (19-238) with a His-tag at the C-terminus was purchased from AcroBiosystems (PD1-H5229). Recombinant human PD-1 protein (25-167) with Fc tag at the C-terminus was also purchased from AcroBiosystems (PD1-H5257). PD-L1 and PD-1 proteins were diluted in the assay buffer and […] was added to the plate well. Plates were centrifuged and proteins were preincubated with inhibitors for 40 minutes. The incubation was followed by the addition of 10 μL of HTRF detection buffer supplemented with Europium cryptate-labeled anti-human IgG (PerkinElmer-AD0212) specific for Fc and anti-His antibody conjugated to SureLight®-Allophycocyanin (APC, PerkinElmer-AD0059H). After centrifugation, the plate was incubated at 25° C. for 60 min. before reading on a PHERAstar FS plate reader (665 nm/620 nm ratio). Final concentrations in the assay were […], 10 nM PD-L1, 1 nM europium anti-human IgG and 20 nM anti-His-Allophycocyanin. IC50 determination was performed by fitting the curve of percent control activity versus the log of the inhibitor concentration using the GraphPad Prism 5.0 software.

Chain of PD-1/PD-L1 protein/protein interaction (Q9NZQ7 19-238): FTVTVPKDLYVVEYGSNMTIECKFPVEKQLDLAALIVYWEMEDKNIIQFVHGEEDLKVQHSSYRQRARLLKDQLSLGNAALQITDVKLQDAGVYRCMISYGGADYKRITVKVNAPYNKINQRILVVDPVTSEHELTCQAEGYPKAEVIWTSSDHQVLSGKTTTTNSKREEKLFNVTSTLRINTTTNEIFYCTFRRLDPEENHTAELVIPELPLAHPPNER

SMILES	IC50 [nM]
Cc1c(-c2ccccc2)cccc1N1CCC(NCC(=O)N2CCN(C(C)C)CC2)CC1 [Example 27, 1-(4-isopropylpiperazin-1-yl)-2-(1-(2-methylbiphenyl-3-yl)piperidin-4-ylamino)ethanone]	100 to 500
Cc1c(-c2ccccc2)cccc1N1CCC(N[C@H]2CC[C@H](O)CC2)CC1 [Example 30, trans-4-(1-(2-methylbiphenyl-3-yl)piperidin-4-ylamino)cyclohexanol]	≤ 100
Cc1c(-c2ccccc2)cccc1N1CCC(NCCc2cnn(C)c2)CC1 [Example 31, N-(2-(1-methyl-1H-pyrazol-4-yl)ethyl)-1-(2-methylbiphenyl-3-yl)piperidin-4-amine]	≤ 100
Cc1c(-c2ccccc2)cccc1N1CCC(N2CCCC2)CC1 [Example 32, 1-(2-methylbiphenyl-3-yl)-4-(pyrrolidin-1-yl)piperidine]	≤ 100
Cc1c(-c2ccccc2)cccc1N1CCC(N[C@H]2CC[C@@H](O)CC2)CC1 [Example 33, cis-4-(1-(2-methylbiphenyl-3-yl)piperidin-4-ylamino)cyclohexanol]	≤ 100
CC[C@H](CO)NC1CCN(c2cccc(-c3ccccc3)c2C)CC1 [Example 35, (R)-2-(1-(2-methylbiphenyl-3-yl)piperidin-4-ylamino)butan-l-ol]	≤ 100
Cc1c(-c2ccccc2)cccc1N1CCC(NC2CC2)CC1 [Example 36, N-cyclopropyl-1-(2-methylbiphenyl-3-yl)piperidin-4-amine]	≤ 100
Cc1c(-c2ccccc2)cccc1N1CCC(NC2CCCC2)CC1 [Example 37, N-cyclopentyl-1-(2-methylbiphenyl-3-yl)piperidin-4-amine]	≤ 100
Cc1c(-c2ccccc2)cccc1N1CCC(NC2CCC(CC#N)CC2)CC1 (centres unmarked) [Example 39, 2-(4-(1-(2-methylbiphenyl-3-yl)piperidin-4-ylamino)cyclohexyl) acetonitrile]	≤ 100
Cc1c(-c2ccccc2)cccc1N1CCC(NC2CC(CO)C2)CC1 (centres unmarked) [Example 43, (3-(1-(2-methylbiphenyl-3-yl)piperidin-4-ylamino)cyclobutyl) methanol]	≤ 100
Cc1c(-c2ccccc2)cccc1N1CCC(NC2CC(C(=O)O)C2)CC1 (centres unmarked) [Example 45, 3-(1-(2-methylbiphenyl-3-yl)piperidin-4-ylamino)cyclobutane-carboxylic acid]	≤ 100
COc1cccc(-c2cccc(N3CCC(N4CCCC4)CC3)c2C#N)c1 [Example 48, 3′-methoxy-3-(4-(pyrrolidin-1-yl)piperidin-1-yl)biphenyl-2-carbonitrile]	100 to 500
N#Cc1c(-c2cccc(F)c2)cccc1N1CCC(N2CCCC2)CC1 [Example 49, 3′-fluoro-3-(4-(pyrrolidin-1-yl)piperidin-1-yl)biphenyl-2-carbonitrile]	≤ 100
N#Cc1c(C2=CCCCC2)cccc1N1CCC(N2CCCC2)CC1 [Example 50, 2-cyclohexenyl-6-(4-(pyrrolidin-1-yl)piperidin-1-yl)benzonitrile]	≤ 100
N#Cc1c(C2CCCCC2)cccc1N1CCC(N2CCCC2)CC1 [Example 51, 2-cyclohexyl-6-(4-(pyrrolidin-1-yl)piperidin-1-yl)benzonitrile]	100 to 500

Further lines, results first:

IC50 [nM]	SMILES
≤ 100	CC(O)C1CCN(C2CCN(c3cccc(-c4ccc5c(c4)OCCO5)c3C#N)CC2)C1 (centres unmarked) [Example 21, 2-(2,3-dihydrobenzo[b][1,4]dioxin-6-yl)-6-(4-(3-(1-hydroxyethyl)pyrrolidin-1-yl)piperidin-1-yl)benzonitrile]
≤ 100	CC1(NC2CCN(c3cccc(-c4ccc5c(c4)OCCO5)c3C#N)CC2)CC1 [Example 22, 2-(2,3-dihydrobenzo[b][1,4]dioxin-6-yl)-6-(4-(1-methylcyclopropylamino)piperidin-1-yl)benzonitrile]
≤ 100	N#Cc1c(-c2ccc3c(c2)OCCO3)cccc1N1CCC(N[C@H]2C[C@H](CO)C2)CC1 [Example 23, 2-(2,3-dihvdrobenzo[b][1,4]dioxin-6-yl)-6-(4-(trans-3-(hydroxymethyl)cyclobutyl-amino)piperidin-1-yl)benzonitrile]
≤ 100	N#Cc1c(-c2ccc3c(c2)OCCO3)cccc1N1CCC(N[C@H]2CC[C@H](O)CC2)CC1 [Example 24, 2-(2,3-dihydrobenzo[b][1,4]dioxin-6-yl)-6-(4-(trans-4-hydroxycyclohexylamino)piperidin-1-yl)benzonitrile]
≤ 100	N#Cc1c(-c2ccc3c(c2)OCCO3)cccc1N1CCC(N2CCC(CO)C2)CC1 (centres unmarked) [Example 25, 2-(2,3-dihydrobenzo[b][1,4]dioxin-6-yl)-6-(4-(3-(hydroxymethyl)pyrrolidin-1-yl)piperidin-1-yl)benzonitrile]
≤ 100	Cc1c(-c2ccccc2)cccc1N1CCC(NCC2(CO)CC2)CC1 [Example 26, (1-((1-(2-methylbiphenyl-3-yl)piperidin-4-ylamino)methyl)cyclopropyl)methanol]
≤ 100	Cc1c(-c2ccccc2)cccc1N1CCC(N[C@H]2C[C@H](O)C2)CC1 [Example 28, trans-3-(1-(2-methylbiphenyl-3-yl)piperidin-4-ylamino)cyclobutanol]
≤ 100	Cc1c(-c2ccccc2)cccc1N1CCC(N[C@H]2C[C@@H](O)C2)CC1 [Example 29, cis-3-(1-(2-methylbiphenyl-3-yl)piperidin-4-ylamino)cyclobutanol]
